According to patent US20250236589A1, “THERAPEUTIC PHENETHYLAMINE COMPOSITIONS AND METHODS OF USE” (Cybin IRL Limited, priority 2022, published 2025):
pKi: −log10 of the molar value. Like-named read-outs stand apart in the source and are kept apart here.

Columns and labels:
Muscarinic M2 (h) = Muscarinic M2 (h) (Homo sapiens (Human), UniProt P08172); assay: Off-target screen, radioligand displacement at 10 μM; settings: read-out: binding at 10 μM
[1] = tested on: GABA (non-selective) (rat cortex); assay: as above; type: binding
dopamine transporter (h) = dopamine transporter (h) (Homo sapiens (Human), UniProt Q01959); assay: as above; settings: read-out: binding at 10 μM
μ-opioid (h) = μ-opioid (h) (Homo sapiens (Human), UniProt P35372); assay: as above; type: binding
5-HT transporter (h) = 5-HT transporter (h) (Homo sapiens (Human), UniProt P31645); assay: as above; type: binding
[2] = molecular target: Cholecystokinin CCK1 (CCKA) (h) (Homo sapiens (Human), UniProt P32238); assay: as above; settings: read-out: binding at 10 μM
D2S (h) = D2S (h) (Homo sapiens (Human), UniProt P14416); assay: as above; settings: read-out: binding at 10 μM
Prostaglandin EP4 (h) = Prostaglandin EP4 (h) (Homo sapiens (Human), UniProt P35408); assay: as above; settings: read-out: binding at 10 μM
[3] = tested on: BZD (central) (rat cortex); assay: as above; type: binding
α1 (non-selective) (r) = assay: as above; type: binding, rat
[4] = tested on: P2X (ATP) (rat urinary bladder); assay: as above; type: binding
P2Y (ATP) (rat cortex) = assay: as above; type: binding
Neurotensin NT1 (h) = Neurotensin NT1 (h) (Homo sapiens (Human), UniProt P30989); assay: as above; settings: read-out: binding at 10 μM
Orphanin ORL1 (h) = Orphanin ORL1 (h) (Homo sapiens (Human), UniProt P41146); assay: as above; settings: read-out: binding at 10 μM
[5] = tested on: BB (nonselective) (rat cortex); assay: as above; type: binding
Muscarinic M4 (h) = Muscarinic M4 (h) (Homo sapiens (Human), UniProt P08173); assay: as above; type: binding; settings: antagonist radioligand
Adenosine A2A (h) = Adenosine A2A (h) (Homo sapiens (Human), UniProt P29274); assay: as above; type: binding
[6] = tested on: Calcium SKCa channel (rat cortex); assay: as above; type: binding
5-HT6 (h) = 5-HT6 (h) (Homo sapiens (Human), UniProt P50406); assay: as above; type: binding; settings: agonist radioligand
human 5-HT2B receptor = human 5-HT2B receptor (Homo sapiens (Human), UniProt P41595); assay: 5-HT2B radioligand binding ([125I](±)DOI)
Description: In another series of 5-HT1A,2A,2B radioligand competition binding assays, the conditions were as follows: For 5-HT1A assays, cell membrane homogenates (˜30 μg protein) derived from HEK-293 cells expressing human 5-HT1ARs were incubated with 0.5 nM [^3H]8-hydroxy-2-(di-n-propylamino)tetralin ([^3H]8-OH-DPAT) for 60 min at room temperature in the presence or absence of the test article. Non-specific binding was determined in the presence of 10 μM 8-OH-DPAT. Samples were then analyzed as described above, with only immaterial differences. […] Samples were then analyzed as described above.

TNF-α (h) = assay: Off-target screen, radioligand displacement at 10 μM; type: binding, human
B2 (h) = B2 (h) (Homo sapiens (Human), UniProt P30411); assay: as above; settings: read-out: binding at 10 μM
Angiotensin AT1 (h) = Angiotensin AT1 (h) (Homo sapiens (Human), UniProt P30556); assay: as above; settings: read-out: binding at 10 μM
δ-opioid (h) = δ-opioid (h) (Homo sapiens (Human), UniProt P41143); assay: as above; settings: read-out: binding at 10 μM
[7] = tested on: Chloride Cl— channel (GABA-gated) (rat cortex); assay: as above; type: binding
[8] = molecular target: BZD (peripheral) (rat heart) (Rattus norvegicus (Rat), UniProt P16257); assay: as above; settings: read-out: binding at 10 μM
Endothelin ETA (h) = Endothelin ETA (h) (Homo sapiens (Human), UniProt P25101); assay: as above; settings: read-out: binding at 10 μM
PPARγ (h) = PPARγ (h) (Homo sapiens (Human), UniProt P37231); assay: as above; settings: read-out: binding at 10 μM
[9] = molecular target: PAC1 (Pituitary adenylate cyclase-activating polypeptide, PACAP) (h) (Homo sapiens (Human), UniProt P41586); assay: as above; settings: read-out: binding at 10 μM
[10] = molecular target: Calcitonin Gene-Related Peptide CGRP1 (h) (Homo sapiens (Human), UniProt Q16602); assay: as above; settings: read-out: binding at 10 μM
Sequence of Calcitonin Gene-Related Peptide CGRP1 (h) (Q16602 whole entry, looked up): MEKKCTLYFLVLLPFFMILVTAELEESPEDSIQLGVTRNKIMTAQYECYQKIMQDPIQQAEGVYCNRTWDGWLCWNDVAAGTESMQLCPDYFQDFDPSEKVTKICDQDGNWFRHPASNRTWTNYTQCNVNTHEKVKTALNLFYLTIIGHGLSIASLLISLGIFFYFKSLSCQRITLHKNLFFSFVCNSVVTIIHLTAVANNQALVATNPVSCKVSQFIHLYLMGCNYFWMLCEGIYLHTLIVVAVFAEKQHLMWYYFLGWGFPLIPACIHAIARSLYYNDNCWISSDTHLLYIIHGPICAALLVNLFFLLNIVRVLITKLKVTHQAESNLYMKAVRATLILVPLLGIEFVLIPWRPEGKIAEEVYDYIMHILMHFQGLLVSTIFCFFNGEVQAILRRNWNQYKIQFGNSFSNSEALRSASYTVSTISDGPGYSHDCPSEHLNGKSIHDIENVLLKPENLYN
Sequence of Calcitonin Gene-Related Peptide CGRP1 (h) (O60894 whole entry partner, looked up): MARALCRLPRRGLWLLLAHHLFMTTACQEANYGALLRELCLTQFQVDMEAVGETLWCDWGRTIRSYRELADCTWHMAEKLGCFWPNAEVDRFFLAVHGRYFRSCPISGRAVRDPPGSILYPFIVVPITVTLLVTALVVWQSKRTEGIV

Sequence of human 5-HT2B receptor (P41595 whole entry, looked up): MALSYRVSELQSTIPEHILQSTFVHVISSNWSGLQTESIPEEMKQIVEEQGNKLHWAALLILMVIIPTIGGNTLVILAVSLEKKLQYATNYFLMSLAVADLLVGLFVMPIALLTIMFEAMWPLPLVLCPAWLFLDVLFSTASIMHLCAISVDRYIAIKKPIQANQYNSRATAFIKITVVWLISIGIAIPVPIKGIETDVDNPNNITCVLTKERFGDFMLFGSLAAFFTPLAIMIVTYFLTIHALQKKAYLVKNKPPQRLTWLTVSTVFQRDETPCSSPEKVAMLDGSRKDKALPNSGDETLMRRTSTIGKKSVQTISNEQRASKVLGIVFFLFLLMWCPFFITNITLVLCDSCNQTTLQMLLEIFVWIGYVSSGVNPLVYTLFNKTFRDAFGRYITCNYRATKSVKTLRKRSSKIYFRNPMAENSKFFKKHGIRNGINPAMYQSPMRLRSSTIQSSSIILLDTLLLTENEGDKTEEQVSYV
Sequence of Adenosine A2A (h) (P29274 whole entry, looked up): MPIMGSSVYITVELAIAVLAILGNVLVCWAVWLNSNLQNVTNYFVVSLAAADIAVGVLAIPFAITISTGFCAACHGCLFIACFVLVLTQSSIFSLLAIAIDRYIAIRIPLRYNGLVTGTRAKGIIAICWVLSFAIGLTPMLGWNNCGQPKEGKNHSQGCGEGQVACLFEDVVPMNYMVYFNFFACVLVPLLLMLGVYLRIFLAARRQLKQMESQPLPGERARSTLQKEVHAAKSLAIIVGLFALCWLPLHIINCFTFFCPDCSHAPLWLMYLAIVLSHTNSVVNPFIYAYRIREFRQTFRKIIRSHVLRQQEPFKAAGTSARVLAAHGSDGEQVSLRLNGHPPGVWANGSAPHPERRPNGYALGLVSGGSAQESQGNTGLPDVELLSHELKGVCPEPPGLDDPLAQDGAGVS
Sequence of Muscarinic M2 (h) (P08172 whole entry, looked up): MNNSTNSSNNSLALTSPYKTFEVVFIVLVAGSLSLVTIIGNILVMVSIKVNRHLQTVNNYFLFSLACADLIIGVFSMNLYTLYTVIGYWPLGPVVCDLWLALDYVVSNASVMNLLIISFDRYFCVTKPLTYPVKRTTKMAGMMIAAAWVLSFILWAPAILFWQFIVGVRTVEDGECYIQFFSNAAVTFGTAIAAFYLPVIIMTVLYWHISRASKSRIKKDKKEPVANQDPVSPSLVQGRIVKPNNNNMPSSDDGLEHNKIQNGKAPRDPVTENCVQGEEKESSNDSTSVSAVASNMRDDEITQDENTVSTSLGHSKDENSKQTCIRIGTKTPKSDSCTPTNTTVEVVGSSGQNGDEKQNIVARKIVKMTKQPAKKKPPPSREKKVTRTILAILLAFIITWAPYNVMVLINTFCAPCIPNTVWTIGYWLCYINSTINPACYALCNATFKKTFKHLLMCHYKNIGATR
Sequence of D2S (h) (P14416 whole entry, looked up): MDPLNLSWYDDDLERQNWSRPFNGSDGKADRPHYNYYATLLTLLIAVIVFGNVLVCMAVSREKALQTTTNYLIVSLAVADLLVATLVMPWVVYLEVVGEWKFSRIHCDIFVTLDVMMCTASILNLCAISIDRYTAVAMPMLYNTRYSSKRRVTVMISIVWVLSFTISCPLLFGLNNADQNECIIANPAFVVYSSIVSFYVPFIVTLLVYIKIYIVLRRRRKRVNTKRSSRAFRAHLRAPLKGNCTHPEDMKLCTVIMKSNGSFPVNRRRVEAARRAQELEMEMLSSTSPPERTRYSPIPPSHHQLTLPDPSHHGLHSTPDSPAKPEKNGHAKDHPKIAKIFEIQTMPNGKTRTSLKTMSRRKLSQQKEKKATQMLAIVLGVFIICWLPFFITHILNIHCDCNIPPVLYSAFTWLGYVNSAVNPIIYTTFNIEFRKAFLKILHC
Sequence of Cholecystokinin CCK1 (CCKA) (h) (P32238 whole entry, looked up): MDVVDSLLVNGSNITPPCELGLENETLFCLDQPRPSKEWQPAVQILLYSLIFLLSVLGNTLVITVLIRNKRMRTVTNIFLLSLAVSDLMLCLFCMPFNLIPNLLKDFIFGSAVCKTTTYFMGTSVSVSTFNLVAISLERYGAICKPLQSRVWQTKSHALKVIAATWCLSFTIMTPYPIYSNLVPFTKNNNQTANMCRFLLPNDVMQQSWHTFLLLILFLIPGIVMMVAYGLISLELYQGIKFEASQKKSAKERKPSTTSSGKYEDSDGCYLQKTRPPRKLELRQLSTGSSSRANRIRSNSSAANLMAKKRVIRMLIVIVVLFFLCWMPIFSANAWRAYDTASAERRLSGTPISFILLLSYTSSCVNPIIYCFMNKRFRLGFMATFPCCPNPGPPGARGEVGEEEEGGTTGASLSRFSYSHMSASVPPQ
Sequence of PAC1 (Pituitary adenylate cyclase-activating polypeptide, PACAP) (h) (P41586 whole entry, looked up): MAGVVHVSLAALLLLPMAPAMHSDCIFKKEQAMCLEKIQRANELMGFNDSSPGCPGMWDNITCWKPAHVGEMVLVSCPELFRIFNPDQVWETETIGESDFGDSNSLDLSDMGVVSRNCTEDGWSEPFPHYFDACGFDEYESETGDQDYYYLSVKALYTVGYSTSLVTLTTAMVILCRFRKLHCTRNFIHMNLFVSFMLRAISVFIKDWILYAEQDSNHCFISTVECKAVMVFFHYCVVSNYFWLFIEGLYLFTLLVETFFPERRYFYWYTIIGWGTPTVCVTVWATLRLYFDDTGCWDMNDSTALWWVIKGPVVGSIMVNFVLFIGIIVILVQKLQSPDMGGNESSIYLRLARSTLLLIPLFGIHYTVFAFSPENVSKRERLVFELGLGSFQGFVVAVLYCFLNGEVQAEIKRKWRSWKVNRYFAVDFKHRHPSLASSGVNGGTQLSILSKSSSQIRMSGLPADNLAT
Sequence of Angiotensin AT1 (h) (P30556 whole entry, looked up): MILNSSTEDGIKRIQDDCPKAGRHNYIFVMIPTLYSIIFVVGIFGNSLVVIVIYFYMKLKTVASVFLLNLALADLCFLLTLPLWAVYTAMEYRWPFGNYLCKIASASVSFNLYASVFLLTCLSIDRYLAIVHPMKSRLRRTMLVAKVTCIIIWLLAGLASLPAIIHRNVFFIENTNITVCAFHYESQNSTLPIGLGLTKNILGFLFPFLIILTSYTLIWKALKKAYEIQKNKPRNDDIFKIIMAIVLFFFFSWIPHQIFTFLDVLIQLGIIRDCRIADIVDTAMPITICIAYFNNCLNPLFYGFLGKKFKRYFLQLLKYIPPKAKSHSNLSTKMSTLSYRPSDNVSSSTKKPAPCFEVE
Sequence of Endothelin ETA (h) (P25101 whole entry, looked up): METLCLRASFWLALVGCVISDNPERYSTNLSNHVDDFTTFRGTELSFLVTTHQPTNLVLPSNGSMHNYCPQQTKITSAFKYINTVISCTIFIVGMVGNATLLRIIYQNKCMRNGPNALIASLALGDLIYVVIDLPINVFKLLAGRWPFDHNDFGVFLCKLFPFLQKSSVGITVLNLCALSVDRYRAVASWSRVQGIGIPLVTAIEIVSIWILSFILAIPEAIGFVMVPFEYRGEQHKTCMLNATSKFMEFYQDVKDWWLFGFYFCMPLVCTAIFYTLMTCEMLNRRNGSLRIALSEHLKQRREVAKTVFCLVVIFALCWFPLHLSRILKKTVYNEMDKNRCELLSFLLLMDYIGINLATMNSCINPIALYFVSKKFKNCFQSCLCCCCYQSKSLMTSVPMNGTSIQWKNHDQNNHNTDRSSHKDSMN
Sequence of B2 (h) (P30411 whole entry, looked up): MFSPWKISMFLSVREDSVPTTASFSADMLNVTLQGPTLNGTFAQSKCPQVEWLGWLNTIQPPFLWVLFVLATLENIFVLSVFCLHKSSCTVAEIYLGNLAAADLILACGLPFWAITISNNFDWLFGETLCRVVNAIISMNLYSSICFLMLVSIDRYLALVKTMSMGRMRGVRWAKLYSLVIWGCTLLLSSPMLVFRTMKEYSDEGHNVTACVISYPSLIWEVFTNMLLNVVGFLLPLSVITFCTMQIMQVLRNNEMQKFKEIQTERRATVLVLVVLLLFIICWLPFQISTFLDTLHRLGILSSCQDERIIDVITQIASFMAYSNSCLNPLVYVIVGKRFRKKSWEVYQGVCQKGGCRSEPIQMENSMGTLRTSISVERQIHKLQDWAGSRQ
Sequence of BZD (peripheral) (rat heart) (P16257 whole entry, looked up): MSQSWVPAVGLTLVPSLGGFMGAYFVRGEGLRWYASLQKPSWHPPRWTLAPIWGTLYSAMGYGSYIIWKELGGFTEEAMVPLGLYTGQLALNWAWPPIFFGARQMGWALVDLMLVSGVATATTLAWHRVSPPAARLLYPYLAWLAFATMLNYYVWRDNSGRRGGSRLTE

Row | Compound | inhibition at 10 µM (Muscarinic M2 (h)) [%] | binding at 10 μM [1] | inhibition at 10 µM (dopamine transporter (h)) [%] | inhibition at 10 µM [2] [%] | inhibition at 10 µM (D2S (h)) [%] | inhibition at 10 µM (Prostaglandin EP4 (h)) [%] | binding at 10 μM [3] | binding at 10 μM (α1 (non-selective) (r)) | binding at 10 μM [4] | binding at 10 μM (P2Y (ATP) (rat cortex)) | inhibition at 10 µM (Neurotensin NT1 (h)) [%] | inhibition at 10 µM (Orphanin ORL1 (h)) [%] | binding at 10 μM [5] | inhibition at 10 µM (Muscarinic M4 (h)) [%] | binding at 10 μM (Adenosine A2A (h)) | binding at 10 μM [6] | inhibition at 10 µM (5-HT6 (h)) [%] | binding at 10 μM (TNF-α (h)) | inhibition at 10 µM (B2 (h)) [%] | inhibition at 10 µM (Angiotensin AT1 (h)) [%] | other results
1 | COc1cc(CC(C)N)c(OC)cc1I (racemic) [DOI, (±)-2,5-dimethoxy-4-iodoamphetamine, reference compound] | < 50 | NB (inhibited less than 50% of radioligand bound to them, and therefore it can be concluded they do not bind (“no binding,” NB)) | < 50 | < 50 | < 50 | < 50 | NB (inhibited less than 50% of radioligand bound to them, and therefore it can be concluded they do not bind (“no binding,” NB)) | NB (inhibited less than 50% of radioligand bound to them, and therefore it can be concluded they do not bind (“no binding,” NB)) | NB (inhibited less than 50% of radioligand bound to them, and therefore it can be concluded they do not bind (“no binding,” NB)) | NB (inhibited less than 50% of radioligand bound to them, and therefore it can be concluded they do not bind (“no binding,” NB)) | < 50 | < 50 | NB (inhibited less than 50% of radioligand bound to them, and therefore it can be concluded they do not bind (“no binding,” NB)) | 75.7 | NB (inhibited less than 50% of radioligand bound to them, and therefore it can be concluded they do not bind (“no binding,” NB)) | NB (inhibited less than 50% of radioligand bound to them, and therefore it can be concluded they do not bind (“no binding,” NB)) | 64.4 | NB (inhibited less than 50% of radioligand bound to them, and therefore it can be concluded they do not bind (“no binding,” NB)) | < 50 | < 50 | inhibition at 10 µM (μ-opioid (h); agonist radioligand, read-out: inhibition at 10 μM): 65%; inhibition at 10 µM (5-HT transporter (h); antagonist radioligand, read-out: inhibition at 10 μM): 76.2%; pKi (human 5-HT2B receptor): 8.82; inhibition at 10 µM (δ-opioid (h)): < 50%; Decreased binding [7]: Decreased binding by ~38%; inhibition at 10 µM [8]: < 50%; inhibition at 10 µM (Endothelin ETA (h)): < 50%; inhibition at 10 µM (PPARγ (h)): < 50%; inhibition at 10 µM [9]: < 50%; inhibition at 10 µM [10]: < 50%
2 | COc1cc(SC(F)(F)F)c(OC)cc1CCN [Compound I-1, 2-(2,5-dimethoxy-4-((trifluoromethyl)thio)phenyl)ethan-1-amine] | < 50 | NB (inhibited less than 50% of radioligand bound to them, and therefore it can be concluded they do not bind (“no binding,” NB)) | < 50 | < 50 | < 50 | < 50 | NB (inhibited less than 50% of radioligand bound to them, and therefore it can be concluded they do not bind (“no binding,” NB)) | NB (inhibited less than 50% of radioligand bound to them, and therefore it can be concluded they do not bind (“no binding,” NB)) | NB (inhibited less than 50% of radioligand bound to them, and therefore it can be concluded they do not bind (“no binding,” NB)) | NB (inhibited less than 50% of radioligand bound to them, and therefore it can be concluded they do not bind (“no binding,” NB)) | < 50 | < 50 | NB (inhibited less than 50% of radioligand bound to them, and therefore it can be concluded they do not bind (“no binding,” NB)) | > 80 | NB (inhibited less than 50% of radioligand bound to them, and therefore it can be concluded they do not bind (“no binding,” NB)) | NB (inhibited less than 50% of radioligand bound to them, and therefore it can be concluded they do not bind (“no binding,” NB)) | > 80 | NB (inhibited less than 50% of radioligand bound to them, and therefore it can be concluded they do not bind (“no binding,” NB)) | < 50 | < 50 | inhibition at 10 µM (μ-opioid (h); read-out: binding at 10 μM): < 50%; inhibition at 10 µM (5-HT transporter (h); read-out: binding at 10 μM): < 50%; inhibition at 10 µM (human 5-HT2B receptor): > 80%; pKi (human 5-HT2B receptor; radioligand [125I](±)DOI, read-out: 5-HT2B, Ki): 8.17; inhibition at 10 µM (δ-opioid (h)): < 50%; Decreased binding [7]: Decreased binding by ~48%; inhibition at 10 µM [8]: < 50%; inhibition at 10 µM (Endothelin ETA (h)): < 50%; inhibition at 10 µM (PPARγ (h)): < 50%; inhibition at 10 µM [9]: < 50%; inhibition at 10 µM [10]: < 50%
